The values that follow come from PMC6359636, “Advances in Drug Delivery and Biomaterials: Facts and Vision” (Pharmaceutics, 2019).

For data set [1] the following is noted: mass spectroscopy, animal model.
A short description of data set [2]: ROS-scavenging activity, DPPH assay (SFNs). It is filed as biochemical. The text has this: Osteoarthritis (OA) represents a musculoskeletal pathological condition characterized by chondrocytes apoptosis, extracellular matrix degradation and consequent cartilage degeneration; the main mechanisms involved in OA onset seem to be oxidative stress and the overproduction of pro-inflammatory cytokines, such as interleukin-1β (IL-1β) and tumour necrosis factor-α (TNF-α). Systemic therapy with anti-inflammatory drugs represents the “gold standard” in OA treatment, and Celecoxib is the first choice. However, it presents limited water solubility, poor in vivo bioavailability, fast metabolism and bloodstream clearance^2. Nanomedicine is considered a good strategy to overcome these problems; in fact, nanosystems are able to improve the solubility and the bioavailability of poorly-soluble drugs, and to control/target the drug release, avoiding undesired side effects. Thanks to its biocompatibility and biodegradability, silk fibroin represents the ideal biomaterial candidate for the nanoparticle production. In this study, we selected silk fibroin nanoparticles (SFNs) as the delivery system for two anti-inflammatory hydrophobic drugs: celecoxib (CXB) and curcumin (CUR). […] The safety and efficacy of nanosystems were determined in terms of hemolytic properties, cytotoxicity, ROS-scavenging activity and anti-inflammatory potency in an OA in vitro cell model. […]
On the technique in general: The DPPH test is a chemical assay of radical scavenging.

Another data set deals with intracellular S. aureus. The experiment in a line: Intracellular antibacterial activity in keratinocytes. It is filed as cell-based, Staphylococcus aureus. The conditions noted are these: HaCaT cells.
The conditions of data set [3]: rat, in vivo.
Description: In in vivo studies, male Sprague−Dawley rats received a femoral intravenous infusion of IND or oral administrations of MPs and free IND; the plasma of rats was analyzed by HPLC over time in order to evaluate the absolute bioavailability of oral doses.
For data set [4] the following is noted: Franz cells, porcine cornea, preliminary data, relevant variability. How it is done:
To assess their ex vivo corneal permeability, permeation experiments were carried out using fresh and whole porcine corneas mounted on Franz cells.

Data set [5] concerns HeLa and G361. Description: Photodynamic ROS production. It is filed as cell-based. To be noted: TMPyP: 5 μM, 25 Jcm^−2; ZnTPPS4: 0.25 μM, 5 Jcm^−2. How it is done: (§1) Photodynamic therapy (PDT) is currently another option for the treatment of tumors. This therapy is a combination of a photodynamically-active substance and light of a suitable wavelength. Two tumor cell cultures—HeLa and G361 were used for the in vitro study. Cells were cultured in 96-well plates with TMPyP and ZnTPPS4 photosensitizers at concentrations of 0.25 μM, 0.5 μM and 5 μM. As a light source, a diode emitter with a wavelength of 414 nm and a radiation intensity of 5 Jcm^−2, 25 Jcm^−2 was used and at irradiation times of 1 min 33 s, 7min 43 s. In this study, three measurement methods were used—a viability test (MTT), determination of ROS production and monitoring of changes in membrane potential (JC1). […] A suitable combination of photosensitizer and radiation may be an effective therapy for the treatment of cancer.

Data set [6] deals with HeLa and G361. Description: Photodynamic viability test (MTT). It counts as cell-based. To be noted: 414 nm irradiation. How it is done:
as §1

For data set [7] the following is noted: no reference given; cited from earlier work.
The test system of data set [8] is Human Corneal Epithelial (HCE) cells. The experiment in a line: Inflammation model in HCE cells, secreted IL-6 by ELISA. To be noted: 72 h. It is filed as cell-based. A general note: An ELISA detects its analyte on a solid surface through an enzyme-linked reagent.
Data set [9] can be described thus: Stability of rhNGF formulated solutions. It is filed as physicochemical. On the procedure:
Drug product formulation. The development of the formulation was addressed to obtain a stable rhNGF solution with suitable characteristics for ocular instillation (pH and osmolality in particular). Excipients already used in ophthalmic preparation were preferred. The stability of rhNGF formulated solutions at different concentrations was investigated in the range of temperature −20 °C–+25 °C. […] Chemical oxidative instability was minimized by the appropriate choice of preparation procedures, lowering O2 head space, using inertized containers and by the addition of an antioxidant. Consequently, methionine as component of formulation, O2 containment during the preparation and O2 head space reduction after filling and before sealing of the container were introduced.

A further data set deals with blood clots. The experiment in a line: Blood clot resolution in murine mesentery venules. It counts as in vivo.
For data set [10] the following is noted: after 3 h of exposure to serum proteins.
Excerpt: (§2) Here, a novel thrombolytic nanoagent is realized by conjugating directly the clinical formulation of tPA to the porous structure of soft discoidal polymeric nanoconstructs (tPA-DPNs).

Peptide text beside a SMILES is read from it. * marks the point of attachment. 5FAM = O=C1OC2(c3ccc(O)cc3Oc3cc(O)ccc32)c2ccc(C(=O)*)cc21

Excerpt for blood clots: as §2
Description for chondrocytes: The safety and efficacy of nanosystems were determined in terms of hemolytic properties, cytotoxicity, ROS-scavenging activity and anti-inflammatory potency in an OA in vitro cell model. In particular, chondrocytes were stimulated with IL-1β to simulate an inflammatory condition, and treated with nanoparticles or free drugs.

As for `CN(Cc1nc2c(N)nc(N)nc2[nH]c1=O)c1ccc(C(=O)N[C@@H](CCC(=O)O)C(=O)O)cc1` [7OH-MTX, 7-hydroxymethotrexate], the “metabolite status in vivo” value in data set [1] was “not the major metabolite”. `COc1cc(/C=C/C(=O)CC(=O)/C=C/c2ccc(O)c(OC)c2)ccc1O` [CUR, Curcumin]: the cytotoxicity on chondrocytes result in the data set with chondrocytes is “highly cytotoxic”.

`Cc1ccc(-c2cc(C(F)(F)F)nn2-c2ccc(S(N)(=O)=O)cc2)cc1` [CXB, celecoxib]: the cytotoxicity on chondrocytes result in the data set with chondrocytes is recorded as “highly cytotoxic”. Also, in [2], the antioxidant effect result was “inhibitory”. Consider `CNC(C)C1CCC(N)C(OC2C(N)CC(N)C(OC3OCC(C)(O)C(NC)C3O)C2O)O1` (stereo not drawn) [GM, gentamicin], for which the intracellular antibacterial activity result in the data set on intracellular S. aureus is “significant intracellular activity”.

Take `COc1ccc2c(c1)c(CC(=O)O)c(C)n2C(=O)c1ccc(Cl)cc1` [IND, indomethacin]: the oral bioavailability entry in [3] is “about 20%”. For the molecule `CC[C@H](C)[C@H](NC(=O)[C@H](CCCCN)NC(=O)[C@@H](NC(=O)[C@H](CCC(N)=O)NC(=O)[C@H](CCCNC(=N)N)NC(=O)CNC(=O)CNC(=O)c1ccc2c(c1)C(=O)OC21c2ccc(O)cc2Oc2cc(O)ccc21)[C@@H](C)CC)C(=O)N[C@@H](Cc1c[nH]c2ccccc12)C(=O)N[C@@H](Cc1ccccc1)C(=O)N[C@@H](CCC(N)=O)C(=O)N[C@@H](CC(N)=O)C(=O)N[C@@H](CCCNC(=N)N)C(=O)N[C@@H](CCCNC(=N)N)C(=O)N[C@@H](CCSC)C(=O)N[C@@H](CCCCN)C(=O)N[C@@H](Cc1c[nH]c2ccccc12)C(=O)N[C@@H](CCCCN)C(=O)N[C@@H](CCCCN)C(=O)O` [PNTarg], in data set [4], the “permeability coefficient / diffusion relative to PNT” value is “did not influence its diffusion with respect to PNT”. On to `CC[C@H](C)[C@H](NC(=O)[C@H](CCCCN)NC(=O)[C@@H](NC(=O)[C@H](Cc1c[nH]c2ccccc12)NC(=O)[C@H](Cc1ccccc1)NC(=O)[C@H](CCC(N)=O)NC(=O)[C@H](CC(N)=O)NC(=O)[C@H](CCCNC(=N)N)NC(=O)[C@H](CCCNC(=N)N)NC(=O)[C@H](CCSC)NC(=O)[C@H](CCCCN)NC(=O)[C@H](Cc1c[nH]c2ccccc12)NC(=O)[C@H](CCCCN)NC(=O)[C@H](CCCCN)NC(=O)CNC(=O)CNC(=O)c1ccc2c(c1)C(=O)OC21c2ccc(O)cc2Oc2cc(O)ccc21)[C@@H](C)CC)C(=O)N[C@@H](CCC(N)=O)C(=O)N[C@@H](CCCNC(=N)N)C(=O)O` [PNTlys] (5FAM-GGKKWKMRRNQFWIKIQR-OH), for which the “permeability coefficient / diffusion relative to PNT” value in data set [4] is listed as “did not affect the behavior”.

`C[n+]1ccc(-c2c3nc(c(-c4cc[n+](C)cc4)c4ccc([nH]4)c(-c4cc[n+](C)cc4)c4nc(c(-c5cc[n+](C)cc5)c5ccc2[nH]5)C=C4)C=C3)cc1` [TMPyP]: in the data set with HeLa and G361 [5], the ROS production result was “more pronounced increase”. Further, the “efficacy in MTT test” value in the data set with HeLa and G361 [6] is given as “higher efficacy”. With `CO[C@H]1/C=C/O[C@@]2(C)Oc3c(C)c(O)c4c(O)c(c(/C=N/N5CCN(C)CC5)c(O)c4c3C2=O)NC(=O)/C(C)=C\C=C\[C@H](C)[C@H](O)[C@@H](C)[C@@H](O)[C@@H](C)[C@H](OC(C)=O)[C@@H]1C` [rifampicin], in [7], the solubility in water is 0.14 % w/v.

For TNFα, the “secreted IL6 relative to control cells” value in data set [8] is “fivefold higher”. For the same molecule, the “secreted IL6” value in [8] (TNFα 10 ng/mL) is listed as “up to 0.058 pg/mL/n° cells”.

Turning to “rhNGF: human recombinant Nerve Growth Factor”, in data set [9] (formulated solutions at different concentrations, −20 °C–+25 °C), the deamidation on storage result was “no deamidation was observed”. In data set [9] (formulations after 3–9 months of storage), the oxidation on storage entry was “only an oxidized rhNGF form was observed in some cases”.

As to “tPA-DPNs: clinical formulation of tPA conjugated to soft discoidal polymeric nanoconstructs”, the “clots dissolved / vessels” value in the data set with blood clots (1.0 mg/kg, about 1 tenth of the clinical dose) is 60%. Moreover, the “blood clots resolved / vessels recanalized” value with blood clots (intravenous, 2.5 mg/kg) was roughly 90%. The original activity preserved result in data set [10] was “over 60%”.
